Data: US7470684B2, “Spiropiperidine derivatives as NK3 antagonists” (Hoffmann-La Roche Inc., priority 2007, dated 2008)

These compounds were tested against T1, human NK3 receptor (Homo sapiens, UniProt P29371) (assay: [3H]SR142801 competition binding assay). Conditions: not given.
T1 construct: expressed in transfected cells; host or cells: HEK293 cells, transiently transfected; membranes
T1 sequence (P29371 1-465): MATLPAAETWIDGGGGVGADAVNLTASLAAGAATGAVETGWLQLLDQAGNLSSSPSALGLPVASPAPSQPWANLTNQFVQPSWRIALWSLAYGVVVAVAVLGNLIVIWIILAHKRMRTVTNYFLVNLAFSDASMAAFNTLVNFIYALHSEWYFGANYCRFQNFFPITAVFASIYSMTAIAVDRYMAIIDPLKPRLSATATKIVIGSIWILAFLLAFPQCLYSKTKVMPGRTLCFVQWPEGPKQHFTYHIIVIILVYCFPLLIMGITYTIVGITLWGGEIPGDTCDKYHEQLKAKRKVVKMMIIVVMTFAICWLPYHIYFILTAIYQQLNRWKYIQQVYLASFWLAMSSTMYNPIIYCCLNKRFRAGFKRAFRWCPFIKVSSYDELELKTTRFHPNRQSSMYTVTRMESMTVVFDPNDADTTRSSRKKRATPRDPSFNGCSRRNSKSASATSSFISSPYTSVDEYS
Protocol: [^3H]SR142801 Competition Binding Assay
hNK3 receptor binding experiment were performed using [^3H]SR142801 (Catalog No. TRK1035, specific activity: 74.0 Ci/mmol, Amersham, GE Healthcare UK limited, Buckinghamshire, UK) and membrane isolated from HEK293 cells transiently expressing recombinant human NK3 receptor. After thawing, the membrane homogenates were centrifuged at 48,000×g for 10 min at 4° C., the pellets were resuspended in the 50 mM Tris-HCl, 4 mM MnCl2, 1 μM phosphoramidon, 0.1% BSA binding buffer at pH 7.4 to a final assay concentration of 5 μg protein/well. For inhibition experiments, membranes were incubated with [^3H]SR142801 at a concentration equal to KD value of radioligand and 10 concentrations of the inhibitory compound (0.0003-10 μM) (in a total reaction volume of 500 μl) for 75 min at room temperature (RT). At the end of the incubation, membranes were filtered onto unitfilter (96-well white microplate with bonded GF/C filter preincubated 1 h in 0.3% PEI+0.3% BSA, Packard BioScience, Meriden, Conn.) with a Filtermate 196 harvester (Packard BioScience) and washed 4 times with ice-cold 50 mM Tris-HCl, pH 7.4 buffer. Nonspecific binding was measured in the presence of 10 μM SB222200 for both radioligands. The radioactivity on the filter was counted (5 min) on a Packard Top-count microplate scintillation counter with quenching correction after addition of 45 μl of microscint 40 (Canberra Packard S.A., Zürich, Switzerland) and shaking for 1 h. Inhibition curves were fitted according to the Hill equation: y=100/(1+(x/IC50)^nH), where nH=slope factor using Excel-fit 4 software (Microsoft). IC50 values were derived from the inhibition curve and the affinity constant (Ki) values were calculated using the Cheng-Prussoff equation Ki=IC50/(1+[L]/KD) where [L] is the concentration of radioligand and KD is its dissociation constant at the receptor, derived from the saturation isotherm. All experiments were performed in duplicate and the mean±standard error (SEM) of the individual Ki values was calculated.

`CN1C(=O)OC2(CCN(CCC(C(=O)NC(c3ccc(Cl)cc3)c3nccn3C)c3ccc(Cl)c(Cl)c3)CC2)c2cc(F)ccc21` (stereo not shown) [Example 88, N-[(4-chlorophenyl)(1-methyl-1H-imidazol-2-yl)methyl]-2-(3,4-dichlorophenyl)-4-(6-fluoro-1-methyl-2-oxo-1,2-dihydro-1′H-spiro[3,1-benzoxazine-4,4′-piperidin]-1′-yl)butanamide] and `CN1C(=O)OC2(CCN(CCC(C(=O)NCc3ccc(-n4cccn4)cc3)c3ccc(Cl)c(Cl)c3)CC2)c2cc(F)ccc21` (stereo not shown) [Example 94, 2-(3,4-dichlorophenyl)-4-(6-fluoro-1-methyl-2-oxo-1,2-dihydro-1′H-spiro[3,1-benzoxazine-4,4′-piperidin]-1′-yl)-N-[4-(1H-pyrazol-1-yl)benzyl]butanamide] are within 1.5-fold of each other in Ki: 72.2 nM for the first, 87.7 nM for the second.

With `CN(CCc1ccccc1)C(=O)C(CCN1CCC2(CC1)OC(=O)N(C)c1ccc(F)cc12)c1ccc(Cl)c(Cl)c1` (stereo not shown) [Example 90, 2-(3,4-dichlorophenyl)-4-(6-fluoro-1-methyl-2-oxo-1,2-dihydro-1′H-spiro[3,1-benzoxazine-4,4′-piperidin]-1′-yl)-N-metyl-N-(2-phenylethyl)butanamide] the Ki was 8 nM.

Same assay, conditions: hNK3 Ki, [3H]SR142801 displacement, membranes of HEK293 cells transiently expressing recombinant human NK3 receptor

`CN(Cc1cccc(F)c1)C(=O)C(CCN1CCC2(CC1)OC(=O)Nc1ccc(F)cc12)c1ccc(Cl)c(Cl)c1` (stereo not shown) [Example 76, 2-(3,4-dichlorophenyl)-N-(3-fluorobenzyl)-4-(6-fluoro-2-oxo-1,2-dihydro-1′H-spiro[3,1-benzoxazine-4,4′-piperidin]-1′-yl)-N-methylbutanamide] and `CN(Cc1ccc(F)cc1)C(=O)C(CCN1CCC2(CC1)OC(=O)Nc1ccc(F)cc12)c1ccc(Cl)c(Cl)c1` (stereo not shown) [Example 80, 2-(3,4-dichlorophenyl)-N-(4-fluorobenzyl)-4-(6-fluoro-2-oxo-1,2-dihydro-1′H-spiro[3,1-benzoxazine-4,4′-piperidin]-1′-yl)-N-methylbutanamide] are within 1.5-fold of each other in Ki: 4.6 nM for the first, 4.4 nM for the second.

`Cc1ccc(CN(C)C(=O)C(CCN2CCC3(CC2)OC(=O)Nc2ccc(F)cc23)c2ccc(Cl)c(Cl)c2)cc1` (stereo not shown) [Example 77, 2-(3,4-dichlorophenyl)-4-(6-fluoro-2-oxo-1,2-dihydro-1′H-spiro[3,1-benzoxazine-4,4′-piperidin]-1′-yl)-N-methyl-N-(4-methylbenzyl)butanamide] and `CN(Cc1cccc(C(F)(F)F)c1)C(=O)C(CCN1CCC2(CC1)OC(=O)Nc1ccc(F)cc12)c1ccc(Cl)c(Cl)c1` (stereo not shown) [Example 79, 2-(3,4-dichlorophenyl)-4-(6-fluoro-2-oxo-1,2-dihydro-1′H-spiro[3,1-benzoxazine-4,4′-piperidin]-1′-yl)-N-methyl-N-[3-(trifluoromethyl)benzyl]butanamide] are within 1.5-fold of each other in Ki: 4.6 nM for the first, 6.6 nM for the second.

`O=C1Nc2ccc(F)cc2C2(CCN(CCC(C(=O)NCc3cccc(OC(F)(F)F)c3)c3ccc(Cl)c(Cl)c3)CC2)O1` (stereo not shown) [Example 78, 2-(3,4-dichlorophenyl)-4-(6-fluoro-2-oxo-1,2-dihydro-1′H-spiro[3,1-benzoxazine-4,4′-piperidin]-1′-yl)-N-[(3-trifluoromethoxy)benzyl]butanamide] and `O=C1Nc2ccc(F)cc2C2(CCN(CCC(C(=O)NCc3cccc(C(F)(F)F)c3)c3ccc(Cl)c(Cl)c3)CC2)O1` (stereo not shown) [Example 83, 2-(3,4-dichlorophenyl)-4-(6-fluoro-2-oxo-1,2-dihydro-1′H-spiro[3,1-benzoxazine-4,4′-piperidin]-1′-yl)-N-[3-(trifluoromethyl)benzyl]butanamide] are within 1.5-fold of each other in Ki: 15.4 nM for the first, 12.9 nM for the second.

Compared with `O=C1Nc2ccc(F)cc2C2(CCN(CCC(C(=O)NCc3ccc(F)cc3)c3ccc(Cl)c(Cl)c3)CC2)O1` (stereo not shown) [Example 81, 2-(3,4-dichlorophenyl)-N-(4-fluorobenzyl)-4-(6-fluoro-2-oxo-1,2-dihydro-1′H-spiro[3,1-benzoxazine-4,4′-piperidin]-1′-yl)-butanamide], `COc1ccc(CNC(=O)C(CCN2CCC3(CC2)OC(=O)Nc2ccc(F)cc23)c2ccc(Cl)c(Cl)c2)cc1` (stereo not shown) [Example 82, 2-(3,4-dichlorophenyl)-4-(6-fluoro-2-oxo-1,2-dihydro-1′H-spiro[3,1-benzoxazine-4,4′-piperidin]-1′-yl)-N-(4-methoxybenzyl)butanamide] is 1.7-fold higher in Ki: 11.6 nM for the first, 19.7 nM for the second.

`O=C1Nc2ccc(F)cc2C2(CCN(CCC(C(=O)NCc3ccc(-c4csnn4)cc3)c3ccc(Cl)c(Cl)c3)CC2)O1` (stereo not shown) [Example 84, 2-(3,4-dichlorophenyl)-4-(6-fluoro-2-oxo-1,2-dihydro-1′H-spiro[3,1-benzoxazine-4,4′-piperidin]-1′-yl)-N-[4-(1,2,3-thiadiazol-4-yl)benzyl]butanamide] and `N#Cc1ccc(CNC(=O)C(CCN2CCC3(CC2)OC(=O)Nc2ccc(F)cc23)c2ccc(Cl)c(Cl)c2)cc1` (stereo not shown) [Example 86, N-(4-cyanobenzyl)-2-(3,4-dichlorophenyl)-4-(6-fluoro-2-oxo-1,2-dihydro-1′H-spiro[3,1-benzoxazine-4,4′-piperidin]-1′-yl)butanamide] are within 1.5-fold of each other in Ki: 11.6 nM for the first, 12.1 nM for the second.

Going from `O=C1Nc2ccc(F)cc2C2(CCN(CCC(C(=O)NCc3ccc(OC(F)(F)F)cc3)c3ccc(Cl)c(Cl)c3)CC2)O1` (stereo not shown) [Example 85, 2-(3,4-dichlorophenyl)-4-(6-fluoro-2-oxo-1,2-dihydro-1′H-spiro[3,1-benzoxazine-4,4′-piperidin]-1′-yl)-N-[4-(trifluoromethoxy)benzyl]butanamide] to `CN1C(=O)OC2(CCN(CCC(C(=O)NCc3ccccc3OC(F)(F)F)c3ccc(Cl)c(Cl)c3)CC2)c2cc(F)ccc21` (stereo not shown) [Example 91, 2-(3,4-dichlorophenyl)-4-(6-fluoro-1-methyl-2-oxo-1,2-dihydro-1′H-spiro[3,1-benzoxazine-4,4′-piperidin]-1′-yl)-N-[2-(trifluoromethoxy)benzyl]butanamide], the Ki falls from 69.9 nM to 6.5 nM (11-fold). The second binds more tightly here.

`CN1C(=O)OC2(CCN(CCC(C(=O)NCc3ccc(Cl)cc3Cl)c3ccc(Cl)c(Cl)c3)CC2)c2cc(F)ccc21` (stereo not shown) [Example 87, N-(2,4-dichlorobenzyl)-2-(3,4-dichlorophenyl)-4-(6-fluoro-1-methyl-2-oxo-1,2-dihydro-1′H-spiro[3,1-benzoxazine-4,4′-piperidin]-1′-yl)butanamide] and `CN1C(=O)OC2(CCN(CCC(C(=O)NCc3cccc(OC(F)F)c3)c3ccc(Cl)c(Cl)c3)CC2)c2cc(F)ccc21` (stereo not shown) [Example 92, 2-(3,4-dichlorophenyl)-N-[3-(difluoromethoxy)benzyl]-4-(6-fluoro-1-methyl-2-oxo-1,2-dihydro-1′H-spiro[3,1-benzoxazine-4,4′-piperidin]-1′-yl)butanamide] are within 1.5-fold of each other in Ki: 2.1 nM for the first, 2.8 nM for the second.

`CN(Cc1ccccc1)C(=O)C(CCN1CCC2(CC1)OC(=O)N(C)c1ccc(F)cc12)c1ccc(Cl)c(Cl)c1` (stereo not shown) [Example 89, N-benzyl-2-(3,4-dichlorophenyl)-4-(6-fluoro-1-methyl-2-oxo-1,2-dihydro-1′H-spiro[3,1-benzoxazine-4,4′-piperidin]-1′-yl)-N-methyl-butanamide] and `CN(Cc1ccc(C(F)(F)F)cc1)C(=O)C(CCN1CCC2(CC1)OC(=O)N(C)c1ccc(F)cc12)c1ccc(Cl)c(Cl)c1` (stereo not shown) [Example 93, 2-(3,4-dichlorophenyl)-4-(6-fluoro-1-methyl-2-oxo-1,2-dihydro-1′H-spiro[3,1-benzoxazine-4,4′-piperidin]-1′-yl)-N-methyl-N-[4-(trifluoromethyl)benzyl]butanamide] are within 1.5-fold of each other in Ki: 0.8 nM for the first, 0.6 nM for the second.
